Data from ChEMBL document CHEMBL1146917, “Discovery and structure-activity relationship of 2-phenyl-oxazole-4-carboxamide derivatives as potent apoptosis inducers” (Bioorg Med Chem Lett, 2006).
Values after ≈ are worked out from the molar mass of the structure shown. Active and inactive are the calls of the source. No cut-off for these calls is given here.

Tests used:
DLD-1 [1] = assay: Induction of apoptosis in human DLD1 cells assessed as activation of caspases by HTS assay; format: functional, cell-based
DLD-1 [2] = assay: Inhibition of tumor growth in BALB/c nude mouse implanted with DLD1 cells at 100 mg/kg, ip, qd; format: functional; conditions: DLD-1, ip
[3] = Solubility of the compound; format: physicochemical
DLD-1 [4] = assay: Inhibition of tumor growth in BALB/c nude mouse implanted with DLD1 cells at 50 mg/kg, ip, qd; format: functional; conditions: DLD-1, ip
DLD-1 [5] = assay: Activity against caspase-mediated PARP cleavage in human DLD1 cells at 1 uM after 48 hrs by Western blot analysis; format: functional, cell-based
DLD-1 [6] = assay: Growth inhibition of human DLD1 cells; format: functional
DLD-1 [7] = assay: Activity against DNA laddering in DLD1 cells at 1 uM after 48 hrs; format: functional, cell-based; conditions: Homo sapiens
DLD-1 [8] = assay: Inhibition of tumor growth in BALB/c nude mouse implanted with DLD1 cells at 50 mg/kg, ip, bid; format: functional; conditions: DLD-1, ip

Structure (SMILES) | EC50 (DLD-1 [1]) [nM] | further results
O=C(Cc1ccccc1)NCc1ccc(-c2nc(C(=O)N3CCC(O)CC3)co2)cc1 | 150 | –
O=C(Cc1ccccc1)NCc1ccc(-c2nc(C(=O)N3CCC(F)CC3)co2)cc1 | 304 | –
O=C(Cc1ccc(OC(F)(F)F)cc1)NCc1ccc(-c2nc(C(=O)N3CCCCC3)co2)cc1 | 270 | inhibition in vivo at 100 mg/kg (DLD-1 [2]): 38%; solubility [3]: 44 µM (≈ 21.4 µg/mL); inhibition in vivo at 50 mg/kg (DLD-1 [4]): 21%; Activity (DLD-1 [5]): Active; GI50 (DLD-1 [6]): 229 nM; Activity (DLD-1 [7]): Active; inhibition in vivo at 50 mg/kg (DLD-1 [8]): 63%
O=C(Cc1ccccc1)NCc1ccc(-c2nc(C(=O)N3CCCC(Cl)C3)co2)cc1 (stereo unspecified) | 119 | –
O=C(Cc1ccc(O)cc1)NCc1ccc(-c2nc(C(=O)N3CCCCC3)co2)cc1 | 73 | –
CC1CCN(C(=O)c2coc(-c3ccc(CNC(=O)Cc4ccccc4)cc3)n2)CC1 | 258 | –
O=C(Cc1ccccc1O)NCc1ccc(-c2nc(C(=O)N3CCCCC3)co2)cc1 | 1010 | –
O=C(Cc1cccc(Cl)c1)NCc1ccc(-c2nc(C(=O)N3CCCCC3)co2)cc1 | 533 | –
O=C(Cc1cccc(F)c1)NCc1ccc(-c2nc(C(=O)N3CCCCC3)co2)cc1 | 72 | –
O=C(Cc1ccccc1)NCc1ccc(-c2nc(C(=O)N3CCC(F)(F)CC3)co2)cc1 | 979 | –
O=C(Cc1ccc(F)cc1)NCc1ccc(-c2nc(C(=O)N3CCCCC3)co2)cc1 | 233 | –
O=C(Cc1ccccc1F)NCc1ccc(-c2nc(C(=O)N3CCCCC3)co2)cc1 | 65 | –
O=C(Cc1ccccc1)NCc1ccc(-c2nc(C(=O)N3CCCC(O)C3)co2)cc1 (stereo unspecified) | 196 | –
O=C(Cc1cccc(O)c1)NCc1ccc(-c2nc(C(=O)N3CCCCC3)co2)cc1 | 139 | –
O=C(Cc1ccccc1)NCc1ccc(-c2nc(C(=O)N3CCC(Cl)CC3)co2)cc1 | 492 | –
O=C(Cc1cccs1)NCc1ccc(-c2nc(C(=O)N3CCCCC3)co2)cc1 | 59 | solubility [3]: 29 µM (≈ 11.9 µg/mL); GI50 (DLD-1 [6]): 75 nM
C[C@@H]1CC[C@H](C)N1C(=O)c1coc(-c2ccc(CNC(=O)Cc3ccccc3)cc2)n1 | 34 | –

Structure (SMILES) | EC50 (DLD-1 [1]) [nM] | further results
O=C(Cc1ccccc1)NCc1ccc(-c2nc(C(=O)N3CCCCCC3)co2)cc1 | 33 | –
O=C1CCCN(C(=O)c2coc(-c3ccc(CNC(=O)Cc4ccccc4)cc3)n2)C1 | 235 | –
O=C(Cc1ccccc1)NCc1ccc(-c2nc(C(=O)N3CC4CC4C3)co2)cc1 (stereo unspecified) | 318 | –
CC1CCCN(C(=O)c2coc(-c3ccc(CNC(=O)Cc4ccccc4)cc3)n2)C1 (stereo unspecified) | 193 | –
O=C(Cc1ccccc1)NCc1ccc(-c2nc(C(=O)N3CCCC(F)(F)C3)co2)cc1 | 20 | solubility [3]: < 10 µM; GI50 (DLD-1 [6]): 15 nM
O=C(Cc1ccccc1)NCc1ccc(-c2nc(C(=O)N3CCC(CO)CC3)co2)cc1 | 196 | –
O=C(Cc1ccc(Cl)cc1)NCc1ccc(-c2nc(C(=O)N3CCCCC3)co2)cc1 | 274 | –
COC1CCN(C(=O)c2coc(-c3ccc(CNC(=O)Cc4ccccc4)cc3)n2)CC1 | 5230 | –
O=C(Cc1ccccc1)NCc1ccc(-c2nc(C(=O)N3CCCC(F)C3)co2)cc1 (stereo unspecified) | 85 | –
O=C(Cc1ccccc1)NCc1ccc(-c2nc(C(=O)N3CCCCC3)co2)cc1 | 65 | solubility [3]: 47 µM (≈ 19 µg/mL); GI50 (DLD-1 [6]): 258 nM
Cc1ccc(CC(=O)NCc2ccc(-c3nc(C(=O)N4CCCCC4)co3)cc2)cc1 | 142 | –
O=C1CCN(C(=O)c2coc(-c3ccc(CNC(=O)Cc4ccccc4)cc3)n2)CC1 | 115 | –
O=C(Cc1ccccc1)NCc1ccc(-c2nc(C(=O)N3CC=CCC3)co2)cc1 | 108 | –
COC1CCCN(C(=O)c2coc(-c3ccc(CNC(=O)Cc4ccccc4)cc3)n2)C1 (stereo unspecified) | 259 | –
O=C(Cc1ccccc1)NCc1ccc(-c2nc(C(=O)N3CCCCCCC3)co2)cc1 | 108 | –
O=C(Cc1ccccc1)NCc1ccc(-c2nc(C(=O)N3CCCC3)co2)cc1 | 553 | –
